Laboratory results reported in patent US10544120B2, “Biaryl kinase inhibitors” (BRISTOL-MYERS SQUIBB COMPANY, priority 2015, dated 2020).

Molecular target: GST-Xa-hAAK1 (Homo sapiens (Human), UniProt Q2M2I8)
Test: AAK1 Kinase Assay
Assay type: biochemical
Details: bacterially expressed GST-Xa-hAAK1 3.5 nM; ATP 22 μM; fluoresceinated peptide 1.5 μM; 3 hours at room temperature; Caliper LabChip 3000
Description: The assays were performed in U-bottom 384-well plates. […] The reactions were initiated by the combination of bacterially expressed, GST-Xa-hAAK1 with substrates and test compounds. The reactions were incubated at room temperature for 3 hours and terminated by adding 60 μl of 35 mM EDTA buffer to each sample. The reactions were analyzed on the Caliper LabChip 3000 (Caliper, Hopkinton, Mass.) by electrophoretic separation of the fluorescent substrate and phosphorylated product. […] Compounds were dissolved at 10 mM in dimethylsulfoxide (DMSO) and evaluated at eleven concentrations. IC50 values were derived by non-linear regression analysis.

GST-Xa-hAAK1, sequence (Q2M2I8 whole entry): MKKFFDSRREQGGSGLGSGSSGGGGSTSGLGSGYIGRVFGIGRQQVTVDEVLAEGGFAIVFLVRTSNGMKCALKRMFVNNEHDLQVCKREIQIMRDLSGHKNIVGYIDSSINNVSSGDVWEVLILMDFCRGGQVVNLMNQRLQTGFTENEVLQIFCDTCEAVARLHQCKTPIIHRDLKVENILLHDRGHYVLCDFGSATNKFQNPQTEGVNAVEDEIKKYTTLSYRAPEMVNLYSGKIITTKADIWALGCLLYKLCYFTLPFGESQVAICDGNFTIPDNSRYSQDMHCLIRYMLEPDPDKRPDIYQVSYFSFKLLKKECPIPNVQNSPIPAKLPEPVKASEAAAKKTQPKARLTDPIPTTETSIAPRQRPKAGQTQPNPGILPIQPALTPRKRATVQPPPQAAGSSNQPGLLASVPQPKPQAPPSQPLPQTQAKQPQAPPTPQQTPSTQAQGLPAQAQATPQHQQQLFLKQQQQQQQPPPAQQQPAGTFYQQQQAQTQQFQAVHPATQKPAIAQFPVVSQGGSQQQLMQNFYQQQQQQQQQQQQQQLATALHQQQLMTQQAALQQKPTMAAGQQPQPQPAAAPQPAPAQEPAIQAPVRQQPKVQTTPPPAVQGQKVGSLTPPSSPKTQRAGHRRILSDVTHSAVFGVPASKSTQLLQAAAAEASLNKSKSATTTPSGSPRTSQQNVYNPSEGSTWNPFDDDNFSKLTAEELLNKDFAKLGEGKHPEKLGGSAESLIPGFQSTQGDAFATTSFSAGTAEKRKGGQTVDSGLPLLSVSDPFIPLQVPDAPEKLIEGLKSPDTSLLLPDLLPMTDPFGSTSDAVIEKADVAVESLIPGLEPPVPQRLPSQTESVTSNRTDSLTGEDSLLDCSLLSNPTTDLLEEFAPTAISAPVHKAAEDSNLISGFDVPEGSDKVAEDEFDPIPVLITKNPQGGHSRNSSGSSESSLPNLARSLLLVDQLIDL

| Structure (SMILES) | IC50 [nM] |
| --- | --- |
| CC(C)C[C@](C)(N)COc1ccc(-c2ccnc(Cl)n2)cc1C(F)(F)F [Example 370, (S)-1-(4-(2-chloropyrimidin-4-yl)-2-(trifluoromethyl)phenoxy)-2,4-dimethylpentan-2-amine] | 1.4 |
| COC(=O)Nc1nccc(-c2cnc(OC[C@](C)(N)CC(C)C)c(F)c2)n1 [Example 373, (R)-methyl (4-(6-((2-amino-2,4-dimethylpentyl)oxy)-5-fluoropyridin-3-yl)pyrimidin-2-yl)carbamate] | 684 |
| COC(=O)Nc1nccc(-c2cnc(OC[C@@](C)(N)CC(C)C)cc2C)n1 [Example 374, (S)-methyl (4-(6-((2-amino-2,4-dimethylpentyl)oxy)-4-methylpyridin-3-yl)pyrimidin-2-yl)carbamate] | 339 |
| CC(C)C[C@](C)(N)COc1ccc(-c2ccnc(Cl)n2)cc1C#N [Example 378, (S)-2-((2-amino-2,4-dimethylpentyl)oxy)-5-(2-chloropyrimidin-4-yl)benzonitrile] | 1.4 |
| COc1cc(-c2cnc(OC[C@@](C)(N)CC(C)C)c(C#N)c2)ccn1 [Example 385, (S)-6-((2-amino-2,4-dimethylpentyl)oxy)-2′-methoxy-[3,4′-bipyridine]-5-carbonitrile] | 50 |
| COc1cc(-c2ccc(OC[C@@](C)(N)CC(C)C)c(C)c2)ccn1 [Example 386, (S)-1-(4-(2-methoxypyridin-4-yl)-2-methylphenoxy)-2,4-dimethylpentan-2-amine] | 13 |
| CC(C)CC(=O)Nc1cc(-c2ccc(OC[C@@](C)(N)CC(C)C)c(C(F)(F)F)c2)ccn1 [Example 395, (S)-N-(4-(4-((2-amino-2,4-dimethylpentyl)oxy)-3-(trifluoromethyl)phenyl)pyridin-2-yl)-3-methylbutanamide] | 0.7 |

More lines, now with the values ahead:

| IC50 [nM] | Structure (SMILES) |
| --- | --- |
| 236 | COC(=O)Nc1nccc(-c2cnc(OC[C@](C)(N)CC(C)C)c(C)c2)n1 [Example 372, (R)-methyl (4-(6-((2-amino-2,4-dimethylpentyl)oxy)-5-methylpyridin-3-yl)pyrimidin-2-yl)carbamate] |
| 2.6 | COC(=O)Nc1nccc(-c2cnc(OC[C@@](C)(N)CC(C)C)c(Cl)c2)n1 [Example 375, (S)-methyl (4-(6-((2-amino-2,4-dimethylpentyl)oxy)-5-chloropyridin-3-yl)pyrimidin-2-yl)carbamate] |
| 35 | COC(=O)Nc1nccc(-c2cnc(OC[C@@](C)(N)CC(C)C)c(C)c2)n1 [Example 379, (S)-methyl (4-(6-((2-amino-2,4-dimethylpentyl)oxy)-5-methylpyridin-3-yl)pyrimidin-2-yl)carbamate] |
| 2 | COc1cc(-c2ccc(OC[C@@](C)(N)CC(C)C)c(C(F)F)c2)ccn1 [Example 383, (S)-1-(2-(difluoromethyl)-4-(2-methoxypyridin-4-yl)phenoxy)-2,4-dimethylpentan-2-amine] |
| 46 | Cc1cc(-c2ccc(OC[C@@](C)(N)CC(C)C)c(C)c2)ncn1 [Example 384, (S)-2,4-dimethyl-1-(2-methyl-4-(6-methylpyrimidin-4-yl)phenoxy)pentan-2-amine] |
| 1010 | Cc1cc(-c2ccc(OC[C@@](C)(N)CC(C)C)c(CF)n2)ncn1 [Example 387, (S)-1-((2-(fluoromethyl)-6-(6-methylpyrimidin-4-yl)pyridin-3-yl)oxy)-2,4-dimethylpentan-2-amine] |
| 4.7 | COC(=O)Nc1nccc(-c2ccc(OC[C@@](C)(N)CC(C)C)c(CF)n2)n1 [Example 388, (S)-methyl (4-(5-((2-amino-2,4-dimethylpentyl)oxy)-6-(fluoromethyl)pyridin-2-yl)pyrimidin-2-yl)carbamate] |
| 1.6 | CCC(C)CC(=O)Nc1cc(-c2ccc(OC[C@@](C)(N)CC(C)C)c(C(F)(F)F)c2)ccn1 (stereo partly drawn) [Example 396, N-(4-(4-(((S)-2-amino-2,4-dimethylpentyl)oxy)-3-(trifluoromethyl)phenyl)pyridin-2-yl)-3-methylpentanamide] |
